Measurements as given in BigSolDB 2.1.

NNC(=O)c1ccccc1O
solubility (mole fraction)
Details | 283.15 K | 288.15 K | 293.15 K | 298.15 K | 303.15 K | 308.15 K | 313.15 K | 318.15 K | 323.15 K
in ethanol | 0.0095 | 0.0115 | 0.0132 | 0.0161 | 0.0189 | 0.0224 | 0.0278 | 0.0316 | 0.0379
in isopropanol | 0.00719 | 0.00841 | 0.0102 | 0.0124 | 0.015 | 0.0181 | 0.0219 | 0.0261 | 0.0316
in methanol | 0.0122 | 0.015 | 0.017 | 0.0198 | 0.0243 | 0.0278 | 0.0326 | 0.0382 | 0.0462
in n-butanol | 0.00861 | 0.00985 | 0.0115 | 0.013 | 0.0148 | 0.0165 | 0.0188 | 0.0216 | 0.025
in n-propanol | 0.00748 | 0.0097 | 0.0112 | 0.0138 | 0.016 | 0.0189 | 0.024 | 0.0283 | 0.0334
in water | 0.0122 | 0.0146 | 0.0182 | 0.0223 | 0.028 | 0.0355 | 0.0435 | 0.0541 | 0.0665

NNC(=O)c1ccccc1
solubility (mole fraction)
Details | 283.15 K | 288.15 K | 293.15 K | 298.15 K | 303.15 K | 308.15 K | 313.15 K | 318.15 K | 323.15 K
in ethanol | 0.0137 | 0.0169 | 0.0203 | 0.0283 | 0.0376 | 0.0481 | 0.0605 | 0.0805 | 0.101
in isopropanol | 0.0112 | 0.0135 | 0.0173 | 0.0231 | 0.0299 | 0.0384 | 0.0489 | 0.0623 | 0.0761
in methanol | 0.0363 | 0.0425 | 0.0515 | 0.0605 | 0.0727 | 0.0843 | 0.103 | 0.118 | 0.137
in n-butanol | 0.0087 | 0.0107 | 0.0132 | 0.0185 | 0.0244 | 0.0321 | 0.041 | 0.0519 | 0.0665
in n-propanol | 0.0129 | 0.0155 | 0.019 | 0.026 | 0.0319 | 0.0421 | 0.0536 | 0.068 | 0.0834
in water | 0.00505 | 0.00662 | 0.00868 | 0.0116 | 0.0154 | 0.0203 | 0.0267 | 0.0348 | 0.0453
